≈ marks a conversion by molar mass, not a printed value. Read-outs that look alike come from different tables or passages of the source.
Key:
[1] = tested on: P. gingivalis NCTC 11834; test: Minimum bactericidal concentration (MBC) assay; format: cell-based, Porphyromonas gingivalis
Description: P. gingivalis strains were cultured and maintained on Wilkins-Chalgren Anaerobe Medium (agar and broth) at pH 7.0; all cultures were incubated anaerobically at 37° C. for 5-7 days.
(§1) This assay, normally carried out after an MIC assay, determines the minimum concentration of a compound that is lethal to the micro-organism being tested.
(§2) These samples were then individually sub-cultured on antibiotic-free agar medium, under the incubation conditions described above. Following incubation they were examined visually for microbial growth.
(§3) The ratio of MIC to MBC should ideally be as close to 1 as possible.

[2] = tested on: S. mutans ATCC 25175; test: Minimum bactericidal concentration (MBC) assay; format: cell-based, Streptococcus mutans
Description: S. mutans was cultured and maintained on Wilkins-Chalgren Anaerobe Medium (agar and broth) at pH 7.0 supplemented with 1 g/L glucose; all cultures were incubated at 37° C. for 48 hours in an atmosphere containing 5% CO2. For the formation of biofilms in biofilm disruption assays, however, S. mutans was grown in brain-heart infusion broth supplemented with 5% sucrose.
as §1, §2, §3

[3] = tested on: P. gingivalis NCTC 11834; test: Minimum inhibitory concentration (MIC) assay; format: cell-based, Porphyromonas gingivalis
Description: (§4) P. gingivalis strains were cultured and maintained on Wilkins-Chalgren Anaerobe Medium (agar and broth) at pH 7.0; all cultures were incubated anaerobically at 37° C. for 5-7 days. This is a standard international method for quantitatively assessing the antimicrobial activity of a compound in a liquid medium. The method used a sterile 96-well microtitre plate, capable of holding about 200 μl of liquid per well. […] The culture medium was as described above. The wells were inoculated with a liquid suspension of freshly grown micro-organism and incubated under the conditions described above. After incubation, the microtitre plate was examined visually (with the aid of a light box) for cloudiness in each well, which would indicate microbial growth. The MIC value was recorded as the lowest concentration of test compound required to inhibit microbial growth, ie the lowest concentration for which the liquid in the well remained clear. The assays were conducted in duplicate (minimum) and included both negative (culture medium with no micro-organisms) and positive (culture medium plus diluting solvent plus micro-organism) controls.

[4] = tested on: S. mutans ATCC 25175; test: Minimum inhibitory concentration (MIC) assay; format: cell-based, Streptococcus mutans
Description: as §4, with “S. mutans was” for “P. gingivalis strains were”, “7.0 supplemented with 1 g/L glucose;” for “7.0;”, “incubated” for “incubated anaerobically”, “48 hours in an atmosphere containing 5% CO2. For the formation of biofilms in biofilm disruption assays, however, S. mutans was grown in brain-heart infusion broth supplemented with 5% sucrose.” for “5-7 days.”

[5] = tested on: S. mutans ATCC 25175 biofilm; test: Biofilm disruption assay on hydroxyapatite discs; format: cell-based, Streptococcus mutans; settings: 0.2% (w/v)
Description: (§5) This assay was designed to determine quantitatively the relative potency of a test compound to disrupt (effectively kill) biofilms formed by a test organism on hydroxyapatite (HA) discs. Biofilms were formed on sterile dense ceramic HA discs 7 mm diameter×1.8 mm thick (Clarkson Chromatography) by placing the discs in the appropriate liquid media (as described above) inoculated with the test organism (0.5×10^8 cfu/ml). The HA discs were then incubated at 37° C. for ˜48 hours in a 5% CO2 atmosphere (for S. mutans ATCC 25175) or ˜96 hours under anaerobic conditions (for P. gingivalis 381). Following the incubation period the supernatant was removed from the wells containing the HA discs and the discs were washed x3 with fresh media to ensure all planktonic cells were removed. The HA discs were then transferred to sterile bijoux bottles containing 1 ml of phosphate buffered saline (PBS) plus test compound(s) at the required concentration. After a set time period (usually 2 and/or 5 min), the HA disc was transferred to another sterile bijoux containing 1 ml of fresh growth media. Adherent cells were then harvested by vigorous vortexing for 2 minutes. A sample was then taken, serially diluted 10-fold in fresh growth media and inoculated onto agar plates in triplicate. Untreated HA discs, and HA discs added to PBS containing only the solvents used to dissolve the test compound(s), acted as controls. The plates were then incubated as described above and subsequently examined visually for growth. Colonies were counted at an appropriate serial dilution (5-50 individual colonies visible) with the aid of a colony counter. These measurements were then converted to numbers of colony forming units (cfu), using the formula: cfu/ml=number of colonies×serial dilution factor×100 (as only a 10 μl sample was taken). These cfu values were then converted into log10 values and plotted graphically against time of sample removal. At each time point, samples were assessed in triplicate; the final cfu/ml value was an average (mean) of the three readings. Biofilm disruption assays, as described above, were carried out using TBHQ as the test compound and chlorhexidine as a positive control. The negative control was 5% ethanol. For these experiments, the TBHQ and chlorhexidine were tested at concentrations of 0.2% w/v. The TBHQ was dissolved in ethanol and the chlorhexidine in distilled water. All the experiments were conducted in triplicate.

[6] = tested on: P. gingivalis 381 biofilm; test: Biofilm disruption assay on hydroxyapatite discs; format: cell-based, Porphyromonas gingivalis; settings: 0.2% (w/v)
Description: as §5

[7] = tested on: S. mutans ATCC 25175; test: Short-contact kill assay (SCKA); format: cell-based, Streptococcus mutans; settings: 0.2% (w/v)
Description: (§6) This quantitative assay was designed to determine the relative potency of a test compound or combination of test compounds to kill a test micro-organism over a short-contact time period (up to 5 minutes).
(§7) Samples from a culture of micro-organisms (ca. 1×10^8 cfu/ml) prepared in phosphate buffered saline (PBS) containing the relevant test compound(s) were taken at timed intervals (between 0 and 5 minutes), 10-fold serially diluted in PBS and then inoculated onto agar plates in triplicate. A culture containing only the solvent(s) used to dissolve the test compound(s) acted as a control for the assay (maximum solvent load 2.5% v/v).
(§8) The plates were then incubated as described above and subsequently examined visually for growth. Colonies were counted at an appropriate serial dilution (5-50 individual colonies visible) with the aid of a colony counter. These measurements were then converted to numbers of colony forming units (cfu), using the formula: cfu/ml=number of colonies×serial dilution factor×100 (as only a […] was taken).
(§9) These cfu values were then converted into […] values and plotted graphically against time of sample removal.
(§10) At each time point, samples were assessed in triplicate; the final cfu/ml value was an average (mean) of the three readings.
(§11) SCKAs, as described above, were carried out using TBHQ as the test compound. Chlorhexidine was used as a positive control and 2.5% ethanol as a negative control.
(§12) For the SCKA experiments, the TBHQ and chlorhexidine were both tested at concentrations of 0.2% w/v. The TBHQ was dissolved in ethanol and the chlorhexidine in distilled water. All the experiments were conducted in triplicate.

[8] = tested on: P. gingivalis NCTC 11834; test: Short-contact kill assay (SCKA); format: cell-based, Porphyromonas gingivalis; settings: 0.2% (w/v)
Description: as §6, §7, §8, §9, §10, §11, §12

[9] = 1 min, 3.00 = limit of detection

| Compound | MBC ([1]; Table 7) [µg/mL] | MIC/MBC ratio ([1]; Table 7) | MBC ([2]; Table 8) [µg/mL] | MIC/MBC ratio ([2]; Table 8) | MIC ([3]; Table 7) [µg/mL] | MIC ([4]; Table 8) [µg/mL] | also measured |
| --- | --- | --- | --- | --- | --- | --- | --- |
| CCc1cc(O)ccc1O [2-ethyl-p-hydroquinone] | 1.95 (≈ 14.1 µM) | 0.5 | 125 (≈ 905 µM) | 0.25 | 0.98 (≈ 7.09 µM) | 31.2 (≈ 226 µM) |  |
| CCCCCCc1ccc(O)cc1O [4-hexyl resorcinol] | 7.8 (≈ 40.1 µM) | 0.5 | 125 (≈ 643 µM) | 0.25 | 3.9 (≈ 20.1 µM) | 31.2 (≈ 161 µM) |  |
| CC1=CC(=O)C(Cl)=CC1=O [2-chloro-5-methyl-p-benzoquinone] | 1.95 (≈ 12.5 µM) | 0.5 | 125 (≈ 798 µM) | 0.5 | 0.98 (≈ 6.26 µM) | 62.5 (≈ 399 µM) |  |
| CC(C)(C)c1cc(O)c(C(C)(C)C)cc1O [2,5-di-t-butyl-p-hydroquinone] | 15.6 (≈ 70.2 µM) | 1 | > 250 | <0.5 | 15.6 (≈ 70.2 µM) | 250 (≈ 1120 µM) |  |
| CC(C)(C)C1=CC(=O)C=CC1=O [2-t-butyl-p-benzoquinone] | < 0.49 |  | 62.5 (≈ 381 µM) | 0.5 | < 0.49 | 31.2 (≈ 190 µM) |  |
| [H]/N=C(\N/C(=N/[H])NCCCCCCNC(=N)NC(=N)Nc1ccc(Cl)cc1)Nc1ccc(Cl)cc1 [CHX, chlorhexidine, reference compound] |  |  |  |  |  |  | MBC ([1]; Porphyromonas gingivalis, NCTC11834, Tables 1, 2, read-out: MBC): 0.98 µg/mL (≈ 1.94 µM); MIC/MBC ratio ([1]; Tables 1, 2): 1; Viable cell counts ([5]; 0 min): 6.36 Log10 cfu/ml; Viable cell counts ([5]; 2 min): 5.00 Log10 cfu/ml; Viable cell counts ([5]; 5 min): 5.21 Log10 cfu/ml; Viable cell counts ([6]; 0 min): 7.74 Log10 cfu/ml; Viable cell counts ([6]; 2 min): 6.08 Log10 cfu/ml; Viable cell counts ([6]; 5 min, 2.00 = limit of detection): 6.29 Log10 cfu/ml; MBC ([2]; Streptococcus mutans, ATCC25175, Tables 1, 2, read-out: MBC): 1.25 µg/mL (≈ 2.47 µM); MIC/MBC ratio ([2]; Tables 1, 2): 0.5; Viable cell counts ([7]; 0 min): 8.05 Log10 cfu/ml; Viable cell counts ([7]; 0.5 min, 3.00 = limit of detection): *3.00 Log10 cfu/ml; Viable cell counts [7, 9]: *3.00 Log10 cfu/ml; MIC ([3]; Porphyromonas gingivalis, NCTC11834, Tables 1, 2, read-out: MIC): 0.98 µg/mL (≈ 1.94 µM); MIC ([4]; Streptococcus mutans, ATCC25175, Tables 1, 2, read-out: MIC): 0.625 µg/mL (≈ 1.24 µM); Viable cell counts ([8]; 0 min): 9.29 Log10 cfu/ml; Viable cell counts ([8]; 0.5 min): *3.00 Log10 cfu/ml; Viable cell counts [8, 9]: *3.00 Log10 cfu/ml |
| CC1=CC(=O)C(C(C)C)=CC1=O [Thymoquinone, thymoquinone] | 0.98 (≈ 5.97 µM) | 0.5 | > 250 | <0.0156 | 0.49 (≈ 2.98 µM) | 3.9 (≈ 23.8 µM) |  |
| Cc1cc(O)c(C(C)C)cc1O [Thymohydroquinone, thymohydroquinone] | 0.98 (≈ 5.9 µM) | <0.5 | 250 (≈ 1500 µM) | 0.008 | < 0.49 | 1.95 (≈ 11.7 µM) |  |
| CCC(C)(C)c1cc(O)c(C(C)(C)CC)cc1O [2,5-di-t-pentyl-p-hydroquinone] | 3.9 (≈ 15.6 µM) | 1 | 250 (≈ 998 µM) | 0.5 | 3.9 (≈ 15.6 µM) | 125 (≈ 499 µM) |  |
| Oc1ccc(O)c(F)c1F [2,3-difluoro-p-hydroquinone] | 7.8 (≈ 53.4 µM) | 0.5 | 250 (≈ 1710 µM) | 0.5 | 3.9 (≈ 26.7 µM) | 125 (≈ 856 µM) |  |

Source: patent US20100310478A1, “SUBSTITUTED BENZOQUINONES AND HYDROQUINONES IN THE TREATMENT OF PERIODONTAL DISEASES” (priority 2007, published 2010)
